Test results taken from ChEMBL document CHEMBL5390201, “The Natural Alkaloid (-)-N-Hydroxyapiosporamide Suppresses Colorectal Tumor Progression as an NF-κB Pathway Inhibitor by Targeting the TAK1-TRAF6 Complex” (J Nat Prod, 2023).
Active and inactive are the calls of the source. No cut-off for these calls is given here.

What was measured:
HCT-116 [1] = assay: Induction of apoptosis in human HCT-116 cells assessed as necrotic cells at 0.25 uM incubated for 24 hrs by Annexin V-FITC/PI staining based flow cytometric analysis (reference value: 1.1 %); format: functional
HT-29 [2] = assay: Induction of apoptosis in human HT-29 cells assessed as early apoptotic cells at 5 uM incubated for 24 hrs by Annexin V-FITC/PI staining based flow cytometric analysis (reference value: 4.39 %); format: functional
HCT-116 [3] = assay: Antitumor activity against human HCT-116 cells xenografted in athymic nude BALB/c mouse assessed as induction of autophagy by measuring increase in LC3B expression in tumor at 15 mg/kg, ip administered every other day and measured after 14 days by immunohistochemistry analysis; format: functional, organism-based; details: time 14.0 day
HT-29 [4] = assay: Induction of apoptosis in human HT-29 cells assessed as necrotic cells at 1 uM incubated for 24 hrs by Annexin V-FITC/PI staining based flow cytometric analysis (reference value: 0.14 %); format: functional
Mus musculus [5] = assay: (§1) Anti-inflammatory activity in AOM/DSS-induced BALB/c mouse model inflammatory bowel disease assessed as reduction in tumor length at 5 to 10 mg/kg, ip pretreated with AOM for 7 days further replaced with DSS for 7 days and repeated for 2 times followed by every 2 days compound treatment for […] starting from day 50 and measured once a week; format: functional, organism-based; details: dose 5-10 mg/kg, time 21.0 day
Mus musculus [6] = assay: In vivo inhibition of NFkappaB activation in athymic BALB/c mouse xenografted with human HCT-116 cells assessed as reduction in IL-8 gene expression in tumor at 15 mg/kg, ip administered every other day and measured after 14 days by qRT-PCR analysis; format: functional, organism-based; details: time 14.0 day
HT-29 [7] = assay: Induction of cell death in human HT-29 cells at 0.5 to 10 uM pretreated with Z-VAD-FMK for 1 hr followed by compound addition and measured after 24 hrs by SRB assay; format: functional, cell-based; details: dose 0.5-10 µM
HT-29 [8] = assay: Induction of apoptosis in human HT-29 cells assessed as necrotic cells at 5 uM incubated for 24 hrs by Annexin V-FITC/PI staining based flow cytometric analysis (reference value: 0.37 %); format: functional
[9] = Toxicity in athymic nude BALB/c mouse xenografted with human HCT-116 cells assessed as pathological changes in lungs at 5 to 15 mg/kg, ip administered every other day and measured after 14 days by hematoxylin and eosin staining-based microscopic analysis; format: organism-based; details: in vivo, 336 h, dose 5-15 mg/kg, time 14 day
HT-29 [10] = assay: Antitumor activity against human HT-29 cells xenografted in athymic nude BALB/c mouse assessed as induction of autophagy by measuring increase in LC3B expression in tumor at 15 mg/kg, ip administered every other day and measured after 14 days by immunohistochemistry analysis; format: functional, organism-based; details: time 14.0 day
HT-29 [11] = assay: Induction of apoptosis in human HT-29 cells assessed as inhibition of caspase 3 protein expression measured for 24 hrs by Western blot analysis; format: functional, cell-based; details: dose 0-10 µM
[12] = Toxicity in athymic nude BALB/c mouse assessed as change in serum creatine kinase level at 5 to 15 mg/kg, ip administered every other day and measured after 14 days; format: organism-based; details: in vivo, 336 h, dose 5-15 mg/kg, time 14 day
SW-620 = assay: Cytotoxicity against human SW620 cells assessed as decrease in cell viability incubated for 48 hrs by SRB assay; format: functional, cell-based; details: SW-620, 48 h
Mus musculus [13] = assay: Protection against LPS-induced endotoxic shock in BALB/c mouse model assessed as survival rate at 5 mg/kg, ip pretreated for 4 hrs followed by LPS administration at 20 mg/kg and measured every 2 to 4 hrs for 44 hrs relative to control; format: functional; details: time 48 hrs
[14] = Toxicity in athymic nude BALB/c mouse assessed as change in serum AKP level at 5 to 15 mg/kg, ip administered every other day and measured after 14 days; format: organism-based; details: in vivo, 336 h, dose 5-15 mg/kg, time 14 day
HT-29 [15] = assay: Induction of apoptosis in human HT-29 cells assessed as early apoptotic cells at 0.5 uM incubated for 24 hrs by Annexin V-FITC/PI staining based flow cytometric analysis (reference value: 5.29 %); format: functional
HCT-116 [16] = assay: Induction of autophagic flux in human HCT-116 cells assessed as increase in LC3I to LC3II conversion preincubated with chloroquine for 1 hr followed by compound addition and measured after 24 hrs by Western blot analysis; format: functional, cell-based
HT-29 [17] = assay: Antitumor activity against human HT-29 cells xenografted in athymic nude BALB/c mouse assessed as induction of apoptosis by measuring increase in cleaved caspase 3 expression in tumor at 15 mg/kg, ip administered every other day and measured after 14 days by immunohistochemistry analysis; format: functional, organism-based; details: time 14.0 day
Mus musculus [18] = assay: as §1, with “distortion of glands” for “tumor length”, “at” for “at 5 to”, “50 by H” for “50”, “E staining based analysis” for “measured once a week”; format: functional, organism-based; details: time 21.0 day
HCT-116 [19] = assay: Induction of autophagy in human HCT-116 cells transfected with GFP-LC3 assessed as increase in LC3 dot puncta at 1 to 10 uM incubated for 24 hrs by fluorescence microscopy; format: functional, cell-based; details: dose 1-10 µM
HCT-116 [20] = assay: Induction of cell cycle arrest in human HCT-116 cells assessed as accumulation of cells at G2/M phase at 1 uM by RNase/PI staining based flow cytometry analysis (reference value: 23.15 %); format: functional
HCT-116 [21] = assay: Induction of apoptosis in human HCT-116 cells assessed as viable cells at 5 uM incubated for 24 hrs by Annexin V-FITC/PI staining based flow cytometric analysis (reference value: 88.8%); format: functional; details: read-out: Activity
[22] = Toxicity in athymic nude BALB/c mouse xenografted with human HT-29 cells assessed as pathological changes in liver at 5 to 15 mg/kg, ip administered every other day and measured after 14 days by hematoxylin and eosin staining-based microscopic analysis; format: organism-based; details: in vivo, 336 h, dose 5-15 mg/kg, time 14 day
HT-29 [23] = assay: Antitumor activity against human HT-29 cells xenografted in athymic nude BALB/c mouse assessed as induction of autophagy by measuring reduction in p62 expression in tumor at 15 mg/kg, ip administered every other day and measured after 14 days by immunohistochemistry analysis; format: functional, organism-based; details: time 14.0 day
HCT-116 [24] = assay: Induction of apoptosis in human HCT-116 cells assessed as late apoptotic cells at 10 uM incubated for 24 hrs by Annexin V-FITC/PI staining based flow cytometric analysis (reference value: 2.9 %); format: functional
HCT-116 [25] = assay: Inhibition of colony formation in human HCT-116 cells at 0.25 to 10 uM incubated for 24 hrs and measured after 14 days by crystal violet staining based assay; format: functional, cell-based; details: dose 0.25-10 µM, time 14.0 day
HT-29 [26] = assay: Induction of apoptosis in human HT-29 cells assessed as inhibition of PARP protein expression measured for 24 hrs by Western blot analysis; format: functional, cell-based; details: dose 0-10 µM
HCT-116 [27] = assay: Induction of apoptosis in human HCT-116 cells assessed as viable cells at 1 uM incubated for 24 hrs by Annexin V-FITC/PI staining based flow cytometric analysis (reference value: 88.8%); format: functional; details: read-out: Activity
HCT-116 [28] = assay: Antitumor activity against human HCT-116 cells xenografted in athymic nude BALB/c mouse assessed as reduction in tumor weight at 5 to 15 mg/kg, ip administered every other day and measured every other day for 16 days; format: functional, organism-based; details: dose 5-15 mg/kg, time 16.0 day
HT-29 [29] = assay: Induction of cell cycle arrest in human HT-29 cells assessed as decrease in CDK4 protein expression upto 10 uM incubated for 24 hrs by Western blot analysis; format: functional, cell-based

C[C@@H]1CC[C@H]2[C@H](C(=O)c3c(O)c([C@@]4(O)CC[C@@H](O)[C@H]5O[C@H]54)cn(O)c3=O)[C@H](C)C=C[C@@H]2C1
Activity (HCT-116 [1]): 3.14% | Activity (HT-29 [2]): 28.3% | Activity (HCT-116 [3]): Active | Activity (HT-29 [4]): 0.4% | Activity (Mus musculus [5]): Active | inhibition (Mus musculus [6]): Active | inhibition (HT-29 [7]): inactive | Activity (HT-29 [8]): 0.29% | Activity [9]: Non-Toxic | Activity (HT-29 [10]): Active | Activity (HT-29 [11]): Dose-Dependent Effect | Activity [12]: Non-Toxic | IC50 (SW-620): 0.57 µM | survival at 5 mg/kg (Mus musculus [13]): > 40% | Activity [14]: Non-Toxic | Activity (HT-29 [15]): 37.6% | Activity (HCT-116 [16]): Active | Activity (HT-29 [17]): Active | Activity (Mus musculus [18]): Active | Activity (HCT-116 [19]): Active | Activity (HCT-116 [20]): 20.12% | viability at 5 µM (HCT-116 [21]): 16.5% | Activity [22]: Non-Toxic | Activity (HT-29 [23]): Active | Activity (HCT-116 [24]): 75% | inhibition (HCT-116 [25]): Active | Activity (HT-29 [26]): Dose-Dependent Effect | viability at 1 µM (HCT-116 [27]): 32% | Activity (HCT-116 [28]): Active | Activity (HT-29 [29]): Active
